One assay has as its target Cytochrome P450 2C9 (Homo sapiens, UniProt P11712). In words: Inhibitory effect on human recombinant liver cytochrome P450 2C9 expressed in yeast strain.
Another assay has as its target T1, Cytochrome P450 2C18 (Homo sapiens, UniProt P33260).
T1 sequence (P33260 whole entry): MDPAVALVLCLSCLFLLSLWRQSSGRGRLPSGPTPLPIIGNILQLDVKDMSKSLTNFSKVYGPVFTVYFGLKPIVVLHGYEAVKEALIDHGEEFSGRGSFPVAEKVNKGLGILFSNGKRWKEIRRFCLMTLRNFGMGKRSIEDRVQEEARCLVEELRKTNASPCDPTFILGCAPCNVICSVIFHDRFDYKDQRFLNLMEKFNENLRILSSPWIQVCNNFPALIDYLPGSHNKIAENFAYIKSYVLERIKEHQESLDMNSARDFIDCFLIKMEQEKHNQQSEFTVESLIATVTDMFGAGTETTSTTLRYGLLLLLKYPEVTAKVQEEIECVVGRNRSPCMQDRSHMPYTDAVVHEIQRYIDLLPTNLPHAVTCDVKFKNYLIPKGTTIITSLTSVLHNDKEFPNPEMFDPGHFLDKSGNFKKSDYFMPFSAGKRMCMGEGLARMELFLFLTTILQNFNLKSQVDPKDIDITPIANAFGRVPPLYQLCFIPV
In words: Inhibitory effect on human recombinant liver cytochrome P450 2C18 expressed in yeast strain.

The next assay concerns the target Cytochrome P450 2C19 (Homo sapiens, UniProt P33261). In words: Inhibitory effect on human recombinant liver cytochrome P450 2C19 expressed in yeast strain.
In the next assay the target is T2, Cytochrome P450 2C8 (Homo sapiens, UniProt P10632).
T2 sequence (P10632 whole entry): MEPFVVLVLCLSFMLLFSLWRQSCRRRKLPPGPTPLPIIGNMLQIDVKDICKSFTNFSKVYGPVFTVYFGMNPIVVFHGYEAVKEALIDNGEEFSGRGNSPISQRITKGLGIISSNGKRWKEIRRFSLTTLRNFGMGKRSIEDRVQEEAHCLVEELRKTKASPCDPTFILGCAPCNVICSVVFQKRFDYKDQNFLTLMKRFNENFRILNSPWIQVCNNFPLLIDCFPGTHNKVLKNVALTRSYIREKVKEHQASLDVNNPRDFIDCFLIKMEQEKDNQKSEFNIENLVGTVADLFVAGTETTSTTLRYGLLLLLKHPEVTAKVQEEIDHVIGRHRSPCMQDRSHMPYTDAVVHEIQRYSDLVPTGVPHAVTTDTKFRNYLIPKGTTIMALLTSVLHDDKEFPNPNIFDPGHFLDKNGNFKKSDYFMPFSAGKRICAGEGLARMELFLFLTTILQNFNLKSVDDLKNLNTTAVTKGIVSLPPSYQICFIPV
In words: Inhibitory effect on human recombinant liver Cytochrome P450 2C8 expressed in yeast strain.

Structures are written as SMILES.

By IC50 is commonly meant the point on the concentration scale where inhibition reaches its midpoint.

Cytochrome P450 2C19, sequence (P33261 whole entry): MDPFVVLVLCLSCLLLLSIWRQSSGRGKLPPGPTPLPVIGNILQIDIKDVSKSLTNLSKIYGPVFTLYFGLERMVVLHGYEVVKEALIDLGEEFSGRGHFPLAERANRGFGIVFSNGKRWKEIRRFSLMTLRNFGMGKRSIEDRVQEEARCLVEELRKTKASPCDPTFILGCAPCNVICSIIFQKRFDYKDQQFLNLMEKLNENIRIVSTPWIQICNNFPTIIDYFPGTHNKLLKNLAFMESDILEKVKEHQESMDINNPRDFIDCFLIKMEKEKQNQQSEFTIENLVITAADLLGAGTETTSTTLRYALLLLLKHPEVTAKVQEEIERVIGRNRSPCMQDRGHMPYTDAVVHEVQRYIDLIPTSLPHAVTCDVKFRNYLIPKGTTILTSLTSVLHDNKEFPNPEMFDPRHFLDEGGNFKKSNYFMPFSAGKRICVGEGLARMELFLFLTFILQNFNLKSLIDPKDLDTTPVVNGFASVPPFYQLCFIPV
Cytochrome P450 2C9, sequence (P11712 whole entry): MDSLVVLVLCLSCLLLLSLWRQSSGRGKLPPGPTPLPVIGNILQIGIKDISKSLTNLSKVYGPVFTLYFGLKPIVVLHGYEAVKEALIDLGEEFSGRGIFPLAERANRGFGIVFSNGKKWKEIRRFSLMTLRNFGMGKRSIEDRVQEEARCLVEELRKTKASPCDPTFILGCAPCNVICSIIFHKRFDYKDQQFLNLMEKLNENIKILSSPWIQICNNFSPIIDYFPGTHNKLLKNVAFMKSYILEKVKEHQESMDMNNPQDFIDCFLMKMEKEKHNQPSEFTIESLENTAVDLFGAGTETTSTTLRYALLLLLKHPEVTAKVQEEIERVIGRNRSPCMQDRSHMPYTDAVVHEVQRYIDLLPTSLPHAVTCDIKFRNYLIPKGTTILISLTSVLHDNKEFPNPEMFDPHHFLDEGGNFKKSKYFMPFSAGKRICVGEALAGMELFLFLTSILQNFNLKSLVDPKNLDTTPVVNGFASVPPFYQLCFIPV

On to `C=CCc1ccc(S(=O)(=O)Nc2ccnn2-c2ccccc2)cc1`, for which the half-maximal inhibitory concentration (IC50) came to 1 µM at Cytochrome P450 2C9, 150 µM at Cytochrome P450 2C18, 450 µM at Cytochrome P450 2C19 and 10 µM on Cytochrome P450 2C8.
The like results for `CCCN(c1ccnn1-c1ccccc1)S(=O)(=O)c1ccc(N)cc1` were, in that order, 55 µM, 8 µM, 250 µM and 8 µM.
`Nc1ccc(S(=O)(=O)Nc2ccnn2-c2ccccc2)cc1` [SULFAPHENAZOLE]: the figures for the IC50 at Cytochrome P450 2C18 and at Cytochrome P450 2C8 were 60 µM and 130 µM, respectively.
With `CCCCN(c1ccnn1-c1ccccc1)S(=O)(=O)c1ccc(N)cc1`, the 50% inhibitory concentration (IC50) at Cytochrome P450 2C9 stood at 50 µM; at Cytochrome P450 2C18, 6 µM; on Cytochrome P450 2C19, 60 µM; on Cytochrome P450 2C8, 4 µM.
In the same order, the values of `CCCN(c1ccnn1-c1ccccc1)S(=O)(=O)c1ccc(C)cc1` are 20 µM, 20 µM, 10 µM and 15 µM.
In the same order, the values of `CC(C)N(c1ccnn1-c1ccccc1)S(=O)(=O)c1ccc(N)cc1` are 80 µM, 3 µM, 130 µM and 30 µM.
The like results for `Cc1ccc(S(=O)(=O)N(C)c2ccnn2-c2ccccc2)cc1` were, in that order, 10 µM, 12 µM, 20 µM and 180 µM.
Regarding `Nc1ccc(S(=O)(=O)N(CCCO)c2ccnn2-c2ccccc2)cc1`, the results for the IC50 on Cytochrome P450 2C18 and at Cytochrome P450 2C8 were 30 µM and 22 µM, respectively.
Turning to `C=CCc1ccc(S(=O)(=O)N(C)c2ccnn2-c2ccccc2)cc1`, the IC50 at Cytochrome P450 2C9 was over 200 µM; at Cytochrome P450 2C18, 10 µM; at Cytochrome P450 2C19, 20 µM; at Cytochrome P450 2C8 it was 20 µM.
On to `NCCc1ccc(S(=O)(=O)N(CCCO)c2ccnn2-c2ccccc2)cc1`, for which the IC50 on Cytochrome P450 2C18 is 65 µM; on Cytochrome P450 2C8, over 250 µM.
Take `Nc1ccc(S(=O)(=O)N(Cc2ccccc2)c2ccnn2-c2ccccc2)cc1`: the IC50 came to 55 µM at Cytochrome P450 2C9, 7 µM on Cytochrome P450 2C18, 45 µM at Cytochrome P450 2C19 and 15 µM at Cytochrome P450 2C8.
For the compound `O=[N+]([O-])c1cccc(-c2ccc(S(=O)(=O)N(CCCCO)c3ccnn3-c3ccccc3)cc2)c1`, the IC50 at Cytochrome P450 2C18 was 4 µM; at Cytochrome P450 2C8 it was over 250 µM.
The like results for `Nc1cccc(-c2ccc(S(=O)(=O)Nc3ccnn3-c3ccccc3)cc2)c1` were, in that order, 20 µM and 8 µM.
For the compound `CCN(c1ccnn1-c1ccccc1)S(=O)(=O)c1ccc(N)cc1`, the IC50 is 90 µM on Cytochrome P450 2C9, 7 µM at Cytochrome P450 2C18, 225 µM on Cytochrome P450 2C19 and 13 µM at Cytochrome P450 2C8.
For `O=[N+]([O-])c1cccc(-c2ccc(S(=O)(=O)N(CCCO)c3ccnn3-c3ccccc3)cc2)c1`, the IC50 is 8 µM on Cytochrome P450 2C18 and over 250 µM at Cytochrome P450 2C8.
In the case of `O=[N+]([O-])c1cccc(-c2ccc(S(=O)(=O)N(CCO)c3ccnn3-c3ccccc3)cc2)c1`, the IC50 at Cytochrome P450 2C9 is 20 µM; at Cytochrome P450 2C18, 9 µM; on Cytochrome P450 2C19, 165 µM; on Cytochrome P450 2C8, over 250 µM.
The like results for `CN(c1ccnn1-c1ccccc1)S(=O)(=O)c1ccc(N)cc1` were, in that order, 100 µM, 15 µM, 200 µM and 50 µM.
